What all share (type): cell-based
The target of assay [1] is T1, hSTING R232 (Homo sapiens, UniProt Q86WV6, H232R).
T1 construct: host or cells: 293T-Dual hSTING R232 cells
Nature of the assay: 293T-Dual hSTING R232 cells, IRF activation (Quanti-Blue). Conditions: 293T-Dual hSTING R232 cell line, 24 h, OD 620 nm. As for the experimental part: (§1) A test compound with a serial of dilution was prepared in complete medium, and 50 μL of the compound were added to the corresponding well, and incubated with the cells at 37° C. incubator for 24 hr.
To determine the effect on interferon regulatory factor (IRF) activation, 20 μL of cell culture supernatant was transferred into a fresh 96-well plate, 150 μL of Quanti-Blue was added to each well and incubated at 37° C. for 25 min. OD at 620 nm was recorded, and EC50 was calculated with 4 parameter logistic equation.

Assay [2] addresses T1, hSTING R232. As to the kind of experiment: 293T-Dual hSTING R232 cells, interferon-β expression (Quanti-Luc). Conditions: 293T-Dual hSTING R232 cell line, 24 h, read-out: IFNb EC50. The procedure: as §1
To evaluate the effect on interferon-β expression, 20 μL of cell culture supernatant were transferred into a fresh 96-half area-well white plate, 30 μL of Quanti-Luc were added to each well, and luminescence was measured immediately with a luminometer. Four parameter logistic equation was used to calculate EC50 (Table 4).

In assay [3] the target is T2, Human STING (Homo sapiens, UniProt Q86WV6, G230A/H232R/R293Q/R71H).
T2 construct: host or cells: THP1-Dual cells (human monocytic reporter line)
As to the kind of experiment: EC50 in THP1-Dual cells, NF-kB reporter (QUANTI-Blue). The note with it: THP1 cell line, 24 h, OD620, read-out: ECs50 NF-kB. As for the experimental part:
(§2) THP1-Dual cells (obtained from Invivogen) are maintained in RPM11640 medium with 100 µg/ml of Zeocin and 10 µg/ml of blasticidin at 37° C., 5% CO2, compounds were dissolved in sterile PBS (pH7.4) as 20 mM, 0.5×10^6 cells/ml of THP-1 Dual cells were incubated with indicated concentrations of a compound for 24 hours at 37° C., 5% CO2 incubator. QUANTI-Luc and QUANTI-Blue were prepared and used following the manufacturer's instructions. 10 ul of cell culture supernatant were mixed with QUANTI-Luc and immediately measured using Luminometer; 20 ul of supernatant were mixed with QUANTI-Blue, and incubated at 37° C. for 30 minutes, and read at OD620. EC50 was calculated using Prism with 4-parameter dose-response curve fitting (Table 3).

The target of assay [4] is T2, Human STING. As to the kind of experiment: EC50 in THP1-Dual cells, IRF3 reporter (QUANTI-Luc). Conditions: THP1 cell line, 24 h. The procedure:
as §2

Data on 17 molecules can be found in patent US11773132B2, “Cyclic di-nucleotides as stimulator of interferon genes modulators” (Beijing Xuanyi PharmaSciences Co., Ltd., priority 2017, dated 2023).

Some results are limits rather than exact numbers.

T1 sequence (Q86WV6 whole entry H232R): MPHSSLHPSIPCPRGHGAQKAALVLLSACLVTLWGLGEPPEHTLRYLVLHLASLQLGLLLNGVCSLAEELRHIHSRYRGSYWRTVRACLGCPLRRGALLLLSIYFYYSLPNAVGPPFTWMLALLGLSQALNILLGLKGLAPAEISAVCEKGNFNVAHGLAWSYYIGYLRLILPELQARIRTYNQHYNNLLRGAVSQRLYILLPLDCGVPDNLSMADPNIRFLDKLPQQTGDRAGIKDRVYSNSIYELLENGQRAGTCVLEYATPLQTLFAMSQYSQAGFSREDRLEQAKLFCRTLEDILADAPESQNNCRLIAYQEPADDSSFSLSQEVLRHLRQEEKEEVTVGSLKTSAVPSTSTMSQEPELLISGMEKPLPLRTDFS
T2 sequence (Q86WV6 whole entry R71H/G230A/H232R/R293Q): as the sequence (Q86WV6 whole entry H232R) above, with R71H, G230A, R293Q counted along it

For the molecule `BP1(=O)OCC2O[C@@H](n3cnc4c(N)ncnc43)[C@H](F)[C@@H]2OP(=O)(O)OC[C@H]2O[C@@H](n3cnc4c(=O)[nH]c(N)nc43)[C@H](F)[C@@H]2O1` (stereo partly drawn) [Compound F2, ((2R,3R,3aR,5R,7aS,9R,10R,10aR,14aR)-2-(2-amino-6-oxo-1,6-dihydro-9H-purin-9-yl)-9-(6-amino-9H-purin-9-yl)-3,10-difluoro-12-hydroxy-5,12-dioxidooctahydro-2H,7H-difuro[3,2-d:3′,2′-j][1,3,7,9]tetraoxa[2,8]diphosphacyclododecin-5-yl)trihydroborate], the EC50 in assay [1] stood at 1.2 µM; in assay [2], 2.78 µM; in assay [3] it was 10 µM; in assay [4], 1.56 µM.
The like results for `BP1(=O)OC[C@H]2O[C@@H](n3cnc4c(=O)[nH]c(N)nc43)[C@H](F)[C@@H]2OP(=O)(O)OCC2O[C@@H](n3cnc4c(N)ncnc43)[C@H](F)[C@@H]2O1` (stereo partly drawn) [Compound G1, ((2R,3R,3aR,5R,7aR,9R,10R,10aR,14aS)-9-(2-amino-6-oxo-1,6-dihydro-9H-purin-9-yl)-2-(6-amino-9H-purin-9-yl)-3,10-difluoro-12-hydroxy-5,12-dioxidooctahydro-2H,7H-difuro[3,2-d:3′,2′-j][1,3,7,9]tetraoxa[2,8]diphosphacyclododecin-5-yl)trihydroborate] were, in that order, 0.41 µM, 0.92 µM, 4.3 µM and 0.63 µM.
The like results for `BP1(=O)OCC2O[C@@H](n3cnc4c(N)ncnc43)[C@H](F)[C@@H]2OP(=O)(S)OC[C@H]2O[C@@H](n3cnc4c(=O)[nH]c(N)nc43)[C@H](F)[C@@H]2O1` (single isomer, unassigned) [Compound C2] were, in that order, 0.23 µM, 0.43 µM, 4.93 µM and 0.43 µM.
The like results for `BP1(=O)OCC2O[C@@H](n3cnc4c(N)ncnc43)[C@H](F)[C@@H]2OP(=O)(S)OC[C@H]2O[C@@H](n3cnc4c(=O)[nH]c(N)nc43)[C@H](F)[C@@H]2O1` (single isomer, unassigned) [Compound C1] were, in that order, 34.3 µM, 75 µM, 67.1 µM and 88.4 µM.
On to `B[P@]1(=O)OC[C@H]2O[C@@H](n3cnc4c(N)ncnc43)[C@H](F)[C@@H]2OP(=O)(O)OC[C@H]2O[C@@H](n3cnc4c(N)ncnc43)[C@H](O1)C2F` (some centres unmarked) [Compound I2], for which the EC50 is 5.43 µM in assay [1], 11.2 µM in assay [2], 34.7 µM in assay [3] and 6.27 µM in assay [4].
The like results for `BP1(=O)OCC2O[C@@H](n3cnc4c(N)ncnc43)[C@H](F)[C@@H]2OP(=O)(O)OC[C@H]2O[C@@H](n3cnc4c(=O)[nH]c(N)nc43)[C@H](F)[C@@H]2O1` (stereo partly drawn) [Compound F1, ((2R,3R,3aR,5R,7aS,9R,10R,10aR,14aR)-2-(2-amino-6-oxo-1,6-dihydro-9H-purin-9-yl)-9-(6-amino-9H-purin-9-yl)-3,10-difluoro-12-hydroxy-5,12-dioxidooctahydro-2H,7H-difuro[3,2-d:3′,2′-j][1,3,7,9]tetraoxa[2,8]diphosphacyclododecin-5-yl)trihydroborate] were, in that order, 0.63 µM, 2.44 µM, 6.59 µM and 1.16 µM.
As to `BP1(=O)OC[C@H]2O[C@@H](n3cnc4c(=O)[nH]c(N)nc43)[C@H](F)[C@@H]2OP(=O)(O)OCC2O[C@@H](n3cnc4c(N)ncnc43)[C@H](F)[C@@H]2O1` (stereo partly drawn) [Compound G2, ((2R,3R,3aR,5R,7aR,9R,10R,10aR,14aS)-9-(2-amino-6-oxo-1,6-dihydro-9H-purin-9-yl)-2-(6-amino-9H-purin-9-yl)-3,10-difluoro-12-hydroxy-5,12-dioxidooctahydro-2H,7H-difuro[3,2-d:3′,2′-j][1,3,7,9]tetraoxa[2,8]diphosphacyclododecin-5-yl)trihydroborate], the EC50 stood at 0.94 µM in assay [1], 1.77 µM in assay [2], 8.52 µM in assay [3] and 1.08 µM in assay [4].
In the case of `BP1(=O)OC[C@H]2O[C@@H](n3cnc4c(=O)[nH]c(N)nc43)[C@H](F)[C@@H]2OP(=O)(S)OCC2O[C@@H](n3cnc4c(N)ncnc43)[C@H](F)[C@@H]2O1` (single isomer, unassigned) [Compound B3], the EC50 in assay [1] came out at 0.32 µM; in assay [2], 2.97 µM; in assay [3], 5.22 µM; in assay [4] it was 0.91 µM.
The like results for `BP1(=O)OCC2O[C@@H](n3cnc4c(N)ncnc43)[C@H](F)[C@@H]2OP(=O)(S)OC[C@H]2O[C@@H](n3cnc4c(=O)[nH]c(N)nc43)[C@H](F)[C@@H]2O1` (single isomer, unassigned) [Compound C4] were, in that order, 0.34 µM, 0.7 µM, 6.29 µM and 0.63 µM.
The like results for `BP1(=O)OC[C@H]2O[C@@H](n3cnc4c(=O)[nH]c(N)nc43)[C@H](F)[C@@H]2OP(=O)(S)OCC2O[C@@H](n3cnc4c(N)ncnc43)[C@H](F)[C@@H]2O1` (single isomer, unassigned) [Compound B4] were, in that order, 0.34 µM, 2.27 µM, 7.61 µM and 0.61 µM.
The like results for `BP1(=O)OCC2O[C@@H](n3cnc4c(N)ncnc43)[C@H](F)[C@@H]2OP(=O)(S)OC[C@H]2O[C@@H](n3cnc4c(=O)[nH]c(N)nc43)[C@H](F)[C@@H]2O1` (single isomer, unassigned) [Compound C3] were, in that order, 0.085 µM, 0.16 µM, 4.56 µM and 0.37 µM.
Turning to `BP1(=O)OC[C@H]2O[C@@H](n3cnc4c(=O)[nH]c(N)nc43)[C@H](F)[C@@H]2OP(=O)(S)OCC2O[C@@H](n3cnc4c(N)ncnc43)[C@H](F)[C@@H]2O1` (single isomer, unassigned) [Compound B1], the EC50 in assay [1] was 11.8 µM; in assay [2], 37.5 µM; in assay [3], more than 100 µM; in assay [4], 28.2 µM.
The like results for `BP1(=O)OC[C@H]2O[C@@H](n3cnc4c(=O)[nH]c(N)nc43)[C@H](F)[C@@H]2OP(=O)(S)OCC2O[C@@H](n3cnc4c(N)ncnc43)[C@H](F)[C@@H]2O1` (single isomer, unassigned) [Compound B2] were, in that order, 9.82 µM, 29.1 µM, 74.6 µM and 14.7 µM.
Turning to `[BH3-][P+]1(O)OCC2OC(n3cnc4c(N)ncnc43)C(OP(=O)(O)OCC3OC(n4cnc5c(N)ncnc54)C(F)C3O1)C2F` (single isomer, unassigned) [Compound K1], the EC50 was found to be 0.72 µM in assay [1], 2.3 µM in assay [2], 7.47 µM in assay [3] and 0.91 µM in assay [4].
Turning to `[BH3-][P+]1(O)OCC2OC(n3cnc4c(N)ncnc43)C(OP(=O)(O)OCC3OC(n4cnc5c(N)ncnc54)C(F)C3O1)C2F` (single isomer, unassigned) [Compound K2], the EC50 in assay [1] worked out at 15 µM; in assay [2], 33 µM; in assay [3], 72.6 µM; in assay [4] it was 23 µM.
The like results for `BP1(=O)OC[C@H]2O[C@@H](n3cnc4c(N)ncnc43)[C@H](F)[C@@H]2OP(=O)(S)OC[C@H]2O[C@@H](n3cnc4c(N)ncnc43)[C@H](O1)C2F` (some centres unmarked) [Mixtures of H1, H2, H3, and H4] were, in that order, 33.6 µM, 84.4 µM, more than 100 µM and more than 100 µM.
The like results for `B[P@]1(=O)OC[C@H]2O[C@@H](n3cnc4c(N)ncnc43)[C@H](F)[C@@H]2OP(=O)(O)OC[C@H]2O[C@@H](n3cnc4c(N)ncnc43)[C@H](O1)C2F` (some centres unmarked) [Compound I1] were, in that order, 9.68 µM, 12.8 µM, 29 µM and 13.9 µM.
